{"source": "patent US8093183B2", "about": "“Methods for using polyol esters to control pests” (S.C. Johnson & Son, Inc., priority 2004, dated 2012)", "tested_on": "German cockroaches", "conditions": "spraying about three grams of formulation", "from_the_text": "In our experiments we created aqueous solutions of sucrose octanoate and sorbitol octanoate by diluting the more concentrated formulations provided by the aforesaid manufacturers. We created varied concentrations ranging from 0.05% through 10%.\nWe tested our formulations by spraying them on cockroaches, ants, crickets, silverfish, wasps, bristletails, hornets, centipedes, earwigs, spiders and sowbugs.", "note": "Where two headings read alike, the source gives them in different places.", "data": [{"substance": "sucrose octanoate", "values": [{"measurement": "kill at 24 hours", "setting": "0.1% concentration", "value": "essentially no kill"}, {"measurement": "kill at 24 hours", "setting": "1% concentration", "value": "about 80%"}, {"measurement": "kill", "setting": "5% concentration", "value": 100, "unit": "%"}]}]}
